Measurements published in a melting point compilation (Tetko et al.; mined from patent text by program, amines drawn as free bases though some values may be those of a salt).

| melting point [°C] | Structure (SMILES) |
| --- | --- |
| 99 to 100 | C=CCc1ccc2oc(C(=O)OCC)cc(=O)c2c1O |
| 143 to 144 | COc1cc(C)c(C)cc1NC(=O)N1CCN(c2ccccc2)CC1 |
| 162 | O=Cc1cc2c3ccccc3ccc2c2sccc12 |
| 106 to 108 | CN(C)c1ccncc1CCCOc1ccc(OCCCC(=O)O)cc1 |
| 139 to 140 | CC(=O)NCc1ccc(CN2CCN(c3cccnc3)CC2)cc1 |
| 226 to 228 | O=C(NC1CC1)c1ccc(CCN2CC=C(c3c[nH]c(-c4ccc(F)cc4)c3-c3ccncc3)CC2)cc1 |
| 201 to 202 | Cc1noc(-c2cc(O)c(O)c([N+](=O)[O-])c2)n1 |
| 88.6 to 91.1 | CC(C)(Br)C(=O)NOCc1ccccc1 |
| 144 to 145 | COC(=O)Cc1cn(-c2ccccc2)nc1O |
| 211 to 213 | O=C(NC(=O)c1ccc2ncccc2c1)NC1CCN(Cc2ccc3ccccc3c2)CC1 |
| 191 to 192 | COc1cc(-c2csc(N)n2)c(OC)cc1C |
| 230 to 232 | CC(C)(Cn1c(CO)nc2c(N)nc3cccnc3c21)NC(=O)C1CCCCC1 |
| 223 to 225 | Cn1c2cc(Cl)ccc2c(=O)c2c(Br)cccc21 |
| 102 to 103 | O=C(O[C@H]1OCCN(Cc2ccccc2)[C@H]1c1ccc(F)cc1)c1cc(C(F)(F)F)cc(C(F)(F)F)c1 |
| 46 to 48 | CCCCCCCCCn1ccc(C#N)cc1=O |
| 154 to 155 | CCOC(=O)OC1=C(c2c(C)cc(C)cc2C)C(=O)NC1C1CCN(OC)CC1 (stereo unspecified) |
| 150 to 151 | CCC1CCCCN1C(=O)C=Cc1c(-c2cccc(N)c2)nn2ccccc12 (stereo unspecified) |
| 202 | Cc1nc(C)c(Cl)c(NCc2ccc(O)cc2)n1 |
| 218 to 220 | COc1ccc(C2=NNC(=O)CC2)cc1N |
| 75 to 78 | O=c1nc(NCc2ccccc2F)c(F)cn1-c1ccsc1 |
| 120 to 121 | C=C1NC(NC(C)CC)=C(C(=O)OCC)C(NN)=C1C#N (stereo unspecified) |
| 117 to 120 | COc1ccc(C(O)CNCCc2ccc(OC)c(OC)c2Cl)cc1 (stereo unspecified) |
| 245 to 248 | O=C(O)c1ccc(-c2coc3ccc(-c4ccccc4)cc23)cc1 |
| 122 to 124 | CCn1cc(CN(C(=O)C2CCCc3cc(OCc4ccccc4)ccc32)c2ccc(C(C)C)cc2)cn1 (stereo unspecified) |
| 155 to 156 | CSc1cc(CCC(=O)OC(C)(C)C)nc(-c2nc(=O)c3ccccc3s2)c1 |

| melting point [°C] | Structure (SMILES) |
| --- | --- |
| > 250 | O=C(O)c1cn2c3c(cc(Cl)cc3c1=O)C(O)CC2 (stereo unspecified) |
| 98 to 100 | CCOc1cc(C=CC(C)=O)ccc1O |
| 67 to 70 | CC(C)(C)c1cc(CNC2CCCCC2)c(O)c(C(C)(C)C)c1 |
| 230 | Cc1ccc(-c2nc(N)ncc2-c2ccc(=O)n(C)n2)cc1 |
| 241 to 242 | CC1(C)CCC(C)(C)c2cc(C(N)COc3ccc(C(=O)O)c(O)c3)ccc21 (stereo unspecified) |
| 45 to 47 | CCOC(=O)CC(=O)N1C(C(=O)OC(C)(C)C)CCCN1C(=O)OCc1ccccc1 (stereo unspecified) |
| 76.8 to 80 | COC(=O)C(C)(C)n1nnc2ccc(Oc3cc(F)c(C(F)(F)F)c(Cl)c3)cc21 |
| 133 to 138 | O=C(Cc1ccccc1)NC(SC(=O)c1ccccc1)C(=O)O (stereo unspecified) |
| 214 to 215 | COc1ccc2c(ccn3c(C(F)(F)F)nnc23)c1 |
| 111 to 114 | Cc1ccc(C)c(C(=O)c2ccccc2)c1O |
| > 300 | Cn1ncc2[nH]c3cccc(-c4ccc(O)cc4)c3c(=O)c21 |
| 300 | CN(C)c1ccc(NC2=CC(=O)C(N)=CC2=O)cc1 |
| > 250 | CCc1ccc(Nc2nc3cc(NC(=O)c4cc([N+](=O)[O-])ccc4Cl)ccc3o2)cc1 |
| 118 to 119 | Cn1cnnc1NCCCOc1cccc(CN2CCCCC2)c1 |
| 190 | N=C(CC1=CCC=CC1)N1C[C@@H]2C(=O)CCC(c3ccccc3)(c3ccccc3)[C@@H]2C1 (racemic) |
| 181 to 186 | CCc1cc(Nc2ccc(Sc3ccncc3)cc2)nc(N)n1 |
| 120 to 121 | O=C(O)CS(=O)(=O)Nc1ccc(F)cc1C(F)(F)F |
| 169 to 170 | CN(C(=O)OCC(Cl)(Cl)Cl)C1CN(C(=O)Nc2ccc(C(F)(F)F)cc2)N=C1c1ccc(Cl)cc1 (stereo unspecified) |
| 152 to 154 | CC(=O)Nc1cnc(-c2cc(Cl)ccc2Cl)c(N)n1 |
| > 270 | O=c1[nH]c2cc(Cl)ccc2c(O)c1Sc1nc2ccccc2s1 |
| 195 to 196 | CC(C)Oc1ccc(NC(=O)OCc2cc3cc(-c4ccc(F)cc4)ccc3o2)c(C(=O)O)c1 |
| 133 to 134 | COc1cc(C=O)ccc1OCc1nc(-c2ccccc2)sc1C |
| 195 to 196 | O=C(N1CCOCC1)C1(c2onc(-c3ccc(O)cc3)c2-c2ccccc2)CC1 |
| 75 to 76 | CC(=O)CCc1ccc(I)cc1 |
| 90 to 92 | CN1CCc2ccc(O)cc2[C@@H](c2ccccc2)C1 |

| melting point [°C] | Structure (SMILES) |
| --- | --- |
| 138 to 140 | Cc1cc(-c2cccc(Cl)c2)nnc1Cl |
| 120 | O=C(O)c1ccc(CCCCc2ccccc2Oc2ccccc2)cc1 |
| 93 to 96 | Cc1nn2c(c1C(N)=O)NCC=C2c1cc(Cl)ccc1Cl |
| 123 to 126 | C[Si](C)(C)OCCNc1ccc(NCCO[Si](C)(C)C)c2c1C(=O)c1ccccc1C2=O |
| 104 to 106 | COc1ccc(CS(=O)(=O)Cc2ccc(OC)cc2OC)c(OC)c1 |
| 142 to 144 | CCOC(=O)CC1CN(c2c(C)cccc2C)C(=N)N1c1c(C)cccc1C (stereo unspecified) |
| 124 | CCCCCCCc1cn(CC(O)c2ccccc2)c(=N)s1 (stereo unspecified) |
| 49 | c1cncc(C2CCCCS2)c1 (racemic) |
| 133 to 134 | CC1(C)OCCC2C(C3(O)CCSCC3)C(=O)N21 (stereo unspecified) |
| 94 | COc1nc2cccccc-2n1 |
| 170 to 173 | COc1ccc(CNc2nc(N3CCCC3CO)nnc2C(=O)NCc2ncccn2)cc1Cl (stereo unspecified) |
| 92 to 93 | COc1cnc(CSc2nc3cc(OC(F)(F)F)ccc3[nH]2)cc1OC |
| 201 to 202 | O=C1COc2ccc(C3=Cc4ccc(NCCO)cc4SC3c3ccccc3)cc2N1 (stereo unspecified) |
| > 270 | O=c1[nH]c2cc(-c3cn4ccccc4n3)ccc2s1 |
| 250 to 254 | CC(=O)NNc1ccnc2c(NC(=O)c3c(Cl)cccc3Cl)cc(F)cc12 |
| 89 to 90 | CC(C)(C)c1ccccc1N1CCN(C(=O)CCC(=O)NS(C)(=O)=O)CC1 |
| 172 to 174 | CC(=CCc1c(C)nc(N)nc1N)c1cc(Cl)ccc1Cl |
| 130 to 132 | CCC(CC)n1cc(Cl)nc(N2CCc3cc(OC)cc(Br)c32)c1=O |
| 233 to 236 | CCOC(=O)C=Cc1nc(-c2ccc(=O)n(C(C)C)n2)c(-c2ccccc2)nc1N |
| 232 to 234 | Cc1cc(NS(=O)(=O)c2nc3nc(Cl)cc(Cl)n3n2)ccc1Br |
| 194 to 195 | CN(C)C=Nc1c(Cl)cc(N=Cc2cc(Cl)cc(Cl)c2)cc1Cl |
| 165 to 166 | CCCCCCCNC(=O)Nc1ccc([N+](=O)[O-])cc1C(=O)NC1CCN(C(c2ccccc2)c2ccccc2)CC1 |
| 137 to 141 | Cc1ccsc1C(Cc1ccccc1N)N(C)C(=O)C(C)C (stereo unspecified) |
| 63 to 64 | Cc1nc(OCCCC2CO2)cc(-c2ccc(F)cc2)n1 (stereo unspecified) |
| 230 | N#Cc1c(N)sc(C=O)c1Sc1ccccc1 |

| melting point [°C] | Structure (SMILES) |
| --- | --- |
| 84.5 to 86 | CCC(=O)OCC1OC(n2cc(F)c(=O)n(C(=O)c3cccc(OC)c3OC)c2=O)CC1OC(=O)CC (stereo unspecified) |
| 200 to 202 | CCCCOc1ccc(-n2cc(C(=O)O)cn2)cc1C#N |
| 159 | Cc1nc(-c2ccc(F)cc2)sc1C(=O)NCc1ccc(OC(C)(C)C(=O)O)cc1 |
| 69 to 70 | CCOc1ccc2c(ccn2C)c1O |
| 171 to 172 | O=C(O)CC1=C(n2nc(-c3c(-c4ccccc4)nn4ccccc34)ccc2=O)CCCCC1 |
| 148 to 151 | Cc1sc(N2CCOCC2)nc1CCOc1ccc(C[C@H](Nc2ccccc2C(=O)c2ccccc2)C(=O)O)cc1 |
| 238 to 240 | COc1ccc(OCc2nc(N)c3nccnc3n2)cc1 |
| 197 to 200 | NC(=O)NCCCCCCNC(N)=O |
| 70 to 71 | O=[N+]([O-])c1ccc2oc(CCC(F)(F)F)cc2c1 |
| 176 to 178 | Cc1ccc2c(=O)c3c(oc2c1)CCC(C#N)C3 (stereo unspecified) |
| 173 to 175 | CC(C)(C)COc1c(-c2ccc(S(N)(=O)=O)cc2)cnn(-c2ccc(F)c(F)c2)c1=O |
| 218 to 220 | CC(C)Cn1c(CN)c(-c2ccccc2)c2cc(SCC(N)=O)ccc2c1=O |
| 225 to 226 | COc1ccc(-c2cc(C(=O)Nc3cccc(F)n3)c3ccccc3n2)cc1OC |
| 156 | CCOc1nc2cc(C)nn2c2ccncc12 |
| 158 | Nc1ccc(C2CC2)cc1C(=O)O |
| 50 to 52 | COc1c(C(C)(C)C)cc(SC)cc1C(C)(C)C |
| 80 to 81 | Cc1ccccc1C1(C#N)C2CC3CC(C2)CC1C3 (stereo unspecified) |
| 250 to 251 | Cc1sc(C(=O)O)c2c1-c1c(cnn1CC(F)(F)F)CC2 |
| 128 to 133 | CC(C)CC(NC(=O)C(Cc1ccccn1)NC(=O)C(Cc1cccc2ccccc12)NC(=O)OCc1ccccc1)C(O)CC(=O)NCCc1ccccn1 (mixture of isomers) |
| 65 to 67 | COc1cc2ncc(N[C@H]3CC[C@@H](O)CC3)nc2cc1OC |
| 121 to 125 | COc1ccccc1CNc1cccnc1Cl |
| 114 to 115 | COCCOc1ccc(CCCOc2cc(CCC(=O)O)n(C)n2)c(Oc2ncc(C(F)(F)F)cc2Cl)c1 |
| 250 to 251 | O=C(NCc1ccccn1)c1[nH]c2ccc(Cl)cc2c1S(=O)(=O)c1ccccc1 |

| Structure (SMILES) | melting point [°C] |
| --- | --- |
| Cc1cc(C2=NOC(c3cc(Cl)cc(Cl)c3)(C(F)(F)F)C2)ccc1C(=O)NC1CON(CCO)C1=O (stereo unspecified) | 78 |
| NC(=O)CCc1ccc(CNC(=O)[C@@H](CCCNC(N)=N[N+](=O)[O-])NC(=O)C(c2ccccc2)c2ccccc2)cc1 | 139 to 140 |
| COC(=O)[C@@]12CN(Cc3ccccc3)C[C@@H]1[C@@](O)(c1ccc(SC)cc1)CC[C@H]2c1ccccc1 (racemic) | 124 to 126 |
